# Target: ATP-dependent translocase ABCB1 (Homo sapiens, UniProt P08183)
# Sequence (P08183 whole entry): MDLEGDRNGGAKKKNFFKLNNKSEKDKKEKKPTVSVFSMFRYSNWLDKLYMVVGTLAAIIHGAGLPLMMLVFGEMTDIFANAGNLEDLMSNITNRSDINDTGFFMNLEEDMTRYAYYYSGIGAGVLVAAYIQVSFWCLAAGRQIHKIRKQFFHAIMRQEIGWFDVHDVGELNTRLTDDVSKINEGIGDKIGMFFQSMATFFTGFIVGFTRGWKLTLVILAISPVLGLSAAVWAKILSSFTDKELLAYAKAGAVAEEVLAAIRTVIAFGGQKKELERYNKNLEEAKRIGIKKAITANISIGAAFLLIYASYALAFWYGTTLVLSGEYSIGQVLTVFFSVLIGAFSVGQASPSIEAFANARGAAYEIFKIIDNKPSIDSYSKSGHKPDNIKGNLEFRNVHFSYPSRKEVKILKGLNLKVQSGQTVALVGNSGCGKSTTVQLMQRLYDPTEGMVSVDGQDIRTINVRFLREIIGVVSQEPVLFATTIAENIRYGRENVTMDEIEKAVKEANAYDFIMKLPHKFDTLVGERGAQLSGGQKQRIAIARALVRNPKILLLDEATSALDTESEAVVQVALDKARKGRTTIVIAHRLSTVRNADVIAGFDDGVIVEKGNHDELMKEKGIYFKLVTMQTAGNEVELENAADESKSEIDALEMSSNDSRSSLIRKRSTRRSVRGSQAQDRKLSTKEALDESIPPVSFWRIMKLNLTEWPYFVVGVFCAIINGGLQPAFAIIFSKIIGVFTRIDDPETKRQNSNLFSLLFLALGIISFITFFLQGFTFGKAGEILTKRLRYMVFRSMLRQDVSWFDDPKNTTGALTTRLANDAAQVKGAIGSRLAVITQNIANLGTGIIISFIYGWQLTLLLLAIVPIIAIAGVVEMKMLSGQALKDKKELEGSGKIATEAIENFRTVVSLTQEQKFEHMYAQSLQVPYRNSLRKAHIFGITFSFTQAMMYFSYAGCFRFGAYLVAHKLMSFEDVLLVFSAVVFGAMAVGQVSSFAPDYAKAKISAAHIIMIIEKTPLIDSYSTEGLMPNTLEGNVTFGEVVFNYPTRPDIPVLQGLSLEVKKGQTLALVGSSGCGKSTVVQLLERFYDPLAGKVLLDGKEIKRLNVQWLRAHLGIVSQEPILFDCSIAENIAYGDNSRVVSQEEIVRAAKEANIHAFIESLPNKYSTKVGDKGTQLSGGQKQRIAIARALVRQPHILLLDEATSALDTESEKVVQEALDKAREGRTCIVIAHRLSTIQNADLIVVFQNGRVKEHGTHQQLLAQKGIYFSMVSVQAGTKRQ
row,SMILES,EC50
1,O=C(c1ccccc1)c1ccccc1OC[C@H](O)CN1CCC(O)(c2ccccc2)CC1,0.309 µM
2,COC(=O)c1ccc(NC[C@@H](O)COc2ccccc2C(=O)CCc2ccccc2)cc1,1.55 µM
3,O=C(CCc1ccccc1)c1ccccc1OC[C@H](O)CNc1ccc(C(F)(F)F)cc1,8.51 µM
4,O=C(CCc1ccccc1)c1ccccc1OC[C@H](O)CNc1ccc([N+](=O)[O-])cc1,2.57 µM
5,CCC(=O)N(Cc1ccccc1)C[C@@H](O)COc1ccccc1C(=O)CCc1ccccc1,1.66 µM
6,CCCN(C[C@@H](O)COc1ccccc1C(=O)CCc1ccccc1)C(=O)c1ccccc1,1.7 µM
7,CC(C)N(C[C@@H](O)COc1ccccc1C(=O)CCc1cccc2ccccc12)C(C)C,0.468 µM
8,O=C(CCc1cccc2ccccc12)c1ccccc1OC[C@H](O)CN1CCC(O)(c2ccccc2)CC1,0.0759 µM
9,CC(=O)c1cccc(OC[C@H](O)CN2CCOCC2)c1,129 µM
10,CC(=O)c1cccc(OC[C@H](O)CN2CCCCC2)c1,9.12 µM
11,CC(=O)c1cccc(OC[C@H](O)CN2CCN(c3ccc(F)cc3)CC2)c1,10 µM
12,CC(=O)c1ccc(OC[C@H](O)CN2CCCCC2)cc1,49 µM
13,CC(=O)c1ccc(OC[C@H](O)CN2CCN(c3ccc(F)cc3)CC2)cc1,11.7 µM
14,CC(=O)c1ccc(OC[C@H](O)CN2CCOCC2)cc1,302 µM
15,CN(CCN(C)S(=O)(=O)c1cccc2c(N(C)C)cccc12)C[C@@H](O)COc1ccccc1C(=O)c1ccccc1,1.82 µM
16,CCCNC[C@@H](O)COc1ccc(C)cc1C(=O)c1ccccc1,1.2 µM
17,CC(C)[C@H](NC[C@@H](O)COc1ccccc1C(=O)CCc1ccccc1)c1ccccc1,0.209 µM
18,O=C(CCc1ccccc1)c1ccccc1OC[C@H](O)CN[C@@H](c1ccccc1)C1CCCCC1,0.145 µM
19,O=C1CCc2cccc(OC[C@H](O)CN3CCCCC3)c21,9.77 µM

row,SMILES,EC50
1,CC(C)(C)[C@@H](NC[C@@H](O)COc1ccccc1C(=O)CCc1ccccc1)c1ccccc1,0.295 µM
2,O=C1CCc2c(OC[C@H](O)CN3CCCCC3)cccc21,11.2 µM
3,O=C1c2c(cccc2OC[C@H](O)CN2CCCCC2)C[C@@H]1Cc1ccccc1,0.214 µM
4,O=C1c2cccc(OC[C@H](O)CN3CCCCC3)c2C[C@H]1Cc1ccccc1,0.141 µM
5,Cc1cccc(N2CCN(C[C@@H](O)COc3cccc4c3C(=O)[C@@H](Cc3ccccc3)C4)CC2)c1C,0.166 µM
6,COc1ccc(N2CCN(C[C@@H](O)COc3cccc4c3C(=O)[C@@H](Cc3ccccc3)C4)CC2)cc1,0.389 µM
7,O=C1c2c(cccc2OC[C@H](O)CN2CCOCC2)C[C@@H]1Cc1ccccc1,0.295 µM
8,O=C1C[C@H](CN2CCCCC2)Oc2ccccc21,178 µM
9,O=C1C[C@H](CN2CCN(c3ccc(F)cc3)CC2)Oc2ccccc21,17.8 µM
10,Cc1cccc(N2CCN(C[C@H]3CC(=O)c4ccccc4O3)CC2)c1C,2.04 µM
11,O=C1C[C@H](CN2CCN(Cc3ccccc3)CC2)Oc2ccccc21,8.91 µM
12,O=C1C[C@H](CN2CCOCC2)Oc2ccccc21,1260 µM
13,O=C([C@@H]1Oc2ccccc2[C@@H]1CCc1ccccc1)N1CCCCC1,6.61 µM
14,C[C@H]1c2ccccc2O[C@H]1C(=O)N1CCCCC1,105 µM
15,c1ccc(CC[C@H]2c3ccccc3O[C@H]2CN2CCCCC2)cc1,1.62 µM
16,C[C@H]1c2ccccc2O[C@H]1CN1CCCCC1,49 µM
17,Cc1cccc(N2CCN(C[C@@H](O)COc3ccc(C(=O)CCc4ccccc4)cc3)CC2)c1C,0.229 µM
18,COc1ccc(C(=O)CCc2ccccc2)c(OC[C@H](O)CN2CCCCC2)c1,0.295 µM
19,COc1ccc(C(=O)CCc2ccc(N(C)C)cc2)c(OC[C@H](O)CN2CCN(c3ccccc3C)CC2)c1,0.0398 µM

row,SMILES,EC50
1,CC(=O)c1ccc(OC[C@H](O)CNCCC(c2ccccc2)c2ccccc2)cc1,0.178 µM
2,O=C(CCc1ccccc1)c1cccc(OC[C@H](O)CNCCC(c2ccccc2)c2ccccc2)c1,0.191 µM
3,O=C(CCc1ccccc1)c1cccc(OC[C@H](O)CN2CCOCC2)c1,3.47 µM
4,O=C(CCc1ccccc1)c1ccc(OC[C@H](O)CNCCC(c2ccccc2)c2ccccc2)cc1,0.501 µM
5,O=C(CCc1ccccc1)c1cc(OCc2ccccc2)ccc1OC[C@H](O)CN1CCC(O)(c2ccccc2)CC1,0.0851 µM
6,CC(=O)c1ccccc1OC[C@H](O)CN(C(C)C)C(C)C,10 µM
7,O[C@@H](COc1ccccc1[C@@H](O)CCc1ccccc1)CN1CCN(Cc2ccccc2)CC1,0.186 µM
8,CO[C@@H](CCc1ccccc1)c1ccccc1OC[C@H](O)CN1CCN(Cc2ccccc2)CC1,0.0794 µM
9,CCC(=O)c1ccccc1OC[C@H](O)CN(C(C)C)C(C)C,4.27 µM
10,CCC(=O)c1ccccc1OC[C@H](O)CNCCC(c1ccccc1)c1ccccc1,0.12 µM
11,CC(=O)c1cc(C)ccc1OC[C@H](O)CN1CCOCC1,12.6 µM
12,CC(=O)c1cc(C)ccc1OC[C@H](O)CN(C(C)C)C(C)C,6.17 µM
13,Cc1ccc(OC[C@H](O)CN2CCCCC2)c(C(=O)CCc2ccccc2)c1,0.263 µM
14,Cc1ccc(OC[C@H](O)CN2CCOCC2)c(C(=O)CCc2ccccc2)c1,1.66 µM
15,CCC(=O)c1ccc(OC[C@H](O)CN2CCN(c3cccc(C)c3C)CC2)cc1,1.41 µM
16,CCC(=O)c1ccc(OC[C@H](O)CN2CCN(c3ccc(F)cc3)CC2)cc1,1.45 µM
17,CCC(=O)c1ccc(OC[C@H](O)CN2CCCCC2)cc1,33.1 µM
18,O=C(CCc1cccc2ccccc12)c1ccc(OC[C@H](O)CN2CCOCC2)cc1,1.55 µM

# Results, then the molecule that gave them:
row,EC50,SMILES
1,0.138 µM,Cc1cccc(N2CCN(C[C@@H](O)COc3cccc(C(=O)CCc4ccccc4)c3)CC2)c1C
2,0.398 µM,CC(C)(C)O[C@H](CCc1ccccc1)c1ccccc1OC[C@H](O)CN1CCCCC1
3,0.148 µM,O=C(c1ccccc1)c1ccccc1OC[C@H](O)CN1CCN(c2ccc(F)cc2)CC1
4,0.355 µM,CC(=O)c1ccccc1OC[C@H](O)CN1CCC(Cc2ccccc2)CC1
5,3.16 µM,CC(=O)c1ccccc1OC[C@H](O)CN1CCC(O)(c2ccccc2)CC1
6,0.0191 µM,Cc1ccccc1N1CCN(C[C@@H](O)COc2ccccc2C(=O)CCc2ccc(Cl)cc2)CC1
7,0.0182 µM,Cc1ccc(CCC(=O)c2ccccc2OC[C@H](O)CN2CCN(c3ccccc3C)CC2)cc1
8,0.0141 µM,COc1ccc(CCC(=O)c2ccccc2OC[C@H](O)CN2CCN(c3ccccc3C)CC2)cc1
9,0.038 µM,Cc1ccccc1N1CCN(C[C@@H](O)COc2ccccc2C(=O)CCc2ccc(Cl)c(Cl)c2)CC1
10,0.339 µM,CC(=O)O[C@@H](COc1ccccc1C(=O)CCc1ccccc1)CN1CCCCC1
11,0.0589 µM,Cc1ccccc1N1CCN(C[C@@H](O)COc2ccc(Cl)cc2C(=O)CCc2ccccc2)CC1
12,0.178 µM,COc1ccc(OC[C@H](O)CN2CCN(c3ccccc3C)CC2)c(C(=O)CCc2ccccc2)c1
13,0.0257 µM,Cc1ccc(OC[C@H](O)CN2CCN(c3ccccc3C)CC2)c(C(=O)CCc2ccccc2)c1
14,0.724 µM,O=C(CCc1cccc2ccccc12)c1ccccc1OC[C@H](O)CN1CCOCC1
15,0.302 µM,CCC(=O)c1ccccc1OC[C@H](O)CN1CCC(O)(c2ccccc2)CC1
16,0.129 µM,O=C(CCc1ccccc1)c1ccccc1OC[C@H](O)CN1CCN(C(=O)c2ccccc2)CC1
17,0.017 µM,Cc1ccccc1N1CCN(C[C@@H](O)COc2cc(Cl)c(Cl)cc2C(=O)CCc2ccccc2)CC1
18,1.55 µM,CC(=O)c1ccc(OC[C@H](O)CN2CCN(c3ccccc3C)CC2)cc1
19,0.38 µM,CC(=O)c1cccc(OC[C@H](O)CN2CCN(c3cccc(C)c3C)CC2)c1
20,0.537 µM,CC(=O)c1cccc(OC[C@H](O)CN2CCN(c3ccccc3C)CC2)c1
21,0.0309 µM,COc1ccc(C(=O)CCc2ccccc2)c(OC[C@H](O)CN2CCN(c3ccccc3C)CC2)c1
22,0.0129 µM,Cc1ccccc1N1CCN(C[C@@H](O)COc2ccccc2C(=O)CCc2ccc(N(C)C)cc2)CC1
23,0.851 µM,COc1ccc(OC[C@H](O)CN2CCN(c3ccccc3C)CC2)c(C(C)=O)c1

row,EC50,SMILES
1,0.0741 µM,Cc1ccccc1N1CCN(C[C@@H](O)COc2cccc(C(=O)CCc3ccccc3)c2)CC1
2,0.871 µM,CC(C)(C)OC(=O)N1CCN(C[C@@H](O)COc2ccccc2C(=O)c2ccccc2)CC1
3,0.0447 µM,Cc1ccccc1N1CCN(C[C@@H](O)COc2ccccc2[C@@H](O)CCc2ccccc2)CC1
4,0.0363 µM,CO[C@@H](CCc1ccccc1)c1ccccc1OC[C@H](O)CN1CCN(c2ccccc2C)CC1
5,0.0832 µM,Cc1cccc(N2CCN(C[C@@H](O)COc3ccccc3[C@@H](O)CCc3ccccc3)CC2)c1C
6,0.832 µM,CCC(=O)c1ccccc1OC[C@H](O)CN1CCN(c2ccc(F)cc2)CC1
7,1.45 µM,CCC(=O)c1ccccc1OC[C@H](O)CN1CCN(Cc2ccccc2)CC1
8,3.63 µM,CC(=O)c1cc(C)ccc1OC[C@H](O)CN1CCN(c2ccc(F)cc2)CC1
9,0.245 µM,Cc1ccc(OC[C@H](O)CN2CCN(c3ccc(F)cc3)CC2)c(C(=O)CCc2ccccc2)c1
10,0.0562 µM,Cc1ccc(OC[C@H](O)CN2CCN(c3cccc(C)c3C)CC2)c(C(=O)CCc2ccccc2)c1
11,0.38 µM,Cc1ccc(NC(=S)N2CCN(C[C@@H](O)COc3ccccc3C(=O)c3ccccc3)CC2)cc1
12,0.479 µM,Cc1ccc(NC(=O)N2CCN(C[C@@H](O)COc3ccccc3C(=O)c3ccccc3)CC2)cc1
13,0.0525 µM,O=C(c1ccccc1)c1ccccc1OC[C@@H](O)CN1CCN(C[C@@H](O)COc2ccccc2C(=O)c2ccccc2)CC1
14,9.55 µM,CC(=O)c1cc(C)ccc1OC[C@H](O)CN1CCN(C[C@H](O)COc2ccccc2C(=O)c2ccccc2)CC1
15,3.47 µM,COc1ccc(N2CCN(C[C@@H](O)COc3ccc(C)cc3C(C)=O)CC2)cc1
16,7.41 µM,CC(=O)c1cc(C)ccc1OC[C@H](O)CN1CCN(C(=O)Nc2ccc(C)cc2)CC1
17,3.16 µM,CC(=O)c1cc(C)ccc1OC[C@H](O)CN1CCN(c2ccc(C)cc2)CC1
18,0.977 µM,O=C(c1ccccc1)c1ccc(OC[C@H](O)CN2CCN(c3ccc(F)cc3)CC2)cc1
19,0.501 µM,Cc1ccccc1N1CCN(C[C@@H](O)COc2ccc(C(=O)c3ccccc3)cc2)CC1
20,0.661 µM,Cc1cccc(N2CCN(C[C@@H](O)COc3ccc(C(=O)c4ccccc4)cc3)CC2)c1C
21,0.871 µM,CCC(=O)c1ccc(OC[C@H](O)CN2CCN(c3ccccc3C)CC2)cc1
22,13.5 µM,O=C(c1ccccc1)c1ccccc1OC[C@H](O)CN1CCOCC1

# Reference: ChEMBL document CHEMBL2449286, “Structure-activity data for a series of P-glycoprotein inhibitors (Supplementary Data to CHEMBL1142990)”
